From PubChem BioAssay (NCI)
Where “and” joins values, the source holds several entries; their conditions need not be identical. Identical values can stand only once.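 Dose response: 5 concentrations. Exposure: 48 h. Format: 96-well plates. Endpoint: linear interpolation; highest concentration if not reached. The concentration for 50% growth inhibition is given as GI50. TGI is the concentration that stops growth completely.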

Key:
Test in all cases: NCI tumour cell line growth inhibition, 48 h
HOP-62 NSCLC = system: HOP-62 NSCLC
UO-31 renal = system: UO-31 renal
OVCAR-8 ovarian = system: OVCAR-8 ovarian
A549 NSCLC = system: A549 NSCLC
HT29 colon = system: HT29 colon
KM12 colon = system: KM12 colon
CAKI-1 renal = system: CAKI-1 renal
SK-MEL-2 melanoma = system: SK-MEL-2 melanoma
NCI-H23 lung = system: NCI-H23 lung
K-562 leukemia = system: K-562 leukemia
MDA-MB-435 = system: MDA-MB-435
RPMI-8226 leukemia = system: RPMI-8226 leukemia
SK-OV-3 ovarian = system: SK-OV-3 ovarian
OVCAR-5 ovarian = system: OVCAR-5 ovarian

Structure (SMILES)	TGI (HOP-62 NSCLC)	TGI (UO-31 renal)	TGI (OVCAR-8 ovarian) [µM]	TGI (A549 NSCLC) [µM]	TGI (HT29 colon) [µM]	TGI (KM12 colon) [µM]	TGI (CAKI-1 renal)	TGI (SK-MEL-2 melanoma)	TGI (NCI-H23 lung) [µM]	TGI (K-562 leukemia) [µM]	TGI (MDA-MB-435)	TGI (RPMI-8226 leukemia)	TGI (SK-OV-3 ovarian)	TGI (OVCAR-5 ovarian) [µM]	GI50 (SK-MEL-2 melanoma)	GI50 (MDA-MB-435)	GI50 (RPMI-8226 leukemia)
COc1ccc(Nc2c(C#N)c3n(c4ccccc24)c2ccccc2[n+]3C)cc1OC	23.6 µM	7.23 µM	18.5	14.9	23	41.7	4.33 µM	14.9 µM	19.3	> 20	14.8 µM	> 25.1 µM	23.3 µM	10.4			
O=c1c2ccccc2[nH]c(=S)n1-c1ccc(N=Nc2cccc3c(O)cccc23)cc1	> 100 µM	> 100 µM	> 100	> 100	> 100	> 100	> 100 µM	> 100 µM	> 100	> 100	68.9 µM	> 100 µM	> 100 µM	> 100			
CC[C@@H]1CC[C@@H]2[C@H](CC[C@]3(C)[C@@H](O)CC[C@@H]23)[C@H]1C(=O)O	> 100 µM	> 100 µM	> 100	> 100	> 100	> 100	> 100 µM	> 100 µM	> 100	> 100	> 100 µM	> 100 µM	> 100 µM	> 100			
Cc1cn(C2CC(N)C(CN)O2)c(=O)[nH]c1=O (stereo not drawn)	> 100 µM	> 100 µM	> 100	> 100	> 100	> 100	> 100 µM	> 100 µM	> 100	> 100	> 100 µM	> 100 µM	> 100 µM	> 100			
COc1ccc(-c2c(C#N)c(S)n(C3OC(COC(C)=O)C(OC(C)=O)C(OC(C)=O)C3OC(C)=O)c(=O)c2C#N)cc1 (stereo not drawn)	67.5 µM and > 100 µM	> 100 µM and 70.1 µM	> 100	> 100	> 100	> 100	56.4 µM and 98.8 µM	> 100 µM and 36.1 µM	> 100		> 100 µM and 50.6 µM	> 100 µM and 60.5 µM	75.8 µM and > 100 µM	> 100	91.5 µM and 20 µM	56.9 µM and 21.3 µM	> 100 µM and 23.4 µM
COc1ncc(C=C(C#N)C#N)c(OC)n1	> 100 µM	56.8 µM	62	> 100	> 100	> 100	> 100 µM	> 100 µM	> 100	> 100	78.8 µM	86 µM	> 100 µM	> 100			
Cc1cc2c(c(C(=O)NCCC(=O)O)c1)Oc1c(cc(C)cc1C(=O)NCCC(=O)O)S2	> 100 µM		> 100	> 100	> 100	> 100	> 100 µM	> 100 µM	> 100	> 100	> 100 µM	> 100 µM	> 100 µM	> 100			
CCN(CC)CCOC(c1cc(OC)ccc1OC)c1ccc2n1-c1ccccc1OC2 (stereo not drawn)	40.2 µM	23 µM	25.9	26.9	13.9	34.2	30 µM	26 µM	25.6	23.5	22.2 µM	16 µM		37.4			
Cc1sc2nc3n(c(=O)c2c1C)N=CN(c1ccccc1)C3	65.3 µM	> 100 µM	> 100	> 100	> 100	> 100	> 100 µM	> 100 µM	> 100	> 100	> 100 µM	> 100 µM	> 100 µM	> 100			
CC(=O)NC1C(OCc2ccccc2)OC(CO)C(O)C1OCC(=O)N[C@@H](C)C(=O)N[C@H](CCC(=O)NCCNCCNc1c2ccccc2nc2cccc([N+](=O)[O-])c12)C(N)=O (stereo partly drawn)	> 100 µM	> 100 µM	> 100	> 100	72.3	78.5	69 µM	46.5 µM	35.3	> 100	71.1 µM	73.3 µM	> 100 µM	> 100			
CCOC(=O)c1c(NC(=O)c2ccccc2)sc2c1CCCC2		> 100 µM	> 100		> 100	> 100	> 100 µM	> 100 µM	> 100	> 100	> 100 µM	> 100 µM	> 100 µM	> 100			
Oc1ccccc1C(c1cc2c(cc1O)OCO2)N1CCOCC1 (stereo not drawn)	> 100 µM	29.3 µM	44.7	57.6	35.2	43	35.9 µM	36 µM	46.6	23.5	34.9 µM	41.7 µM	> 100 µM	57.8			
Clc1nc(Cl)nc(NC23CC4CC(CC(C4)C2)C3)n1	34.5 µM	23.5 µM	34.9	38.5	37.9	32.2	21.7 µM	> 41.8 µM	34.1	33.7	34.4 µM	38.4 µM	> 57.1 µM	39.5			
N#Cc1c(N)[nH]c(=S)c(C#N)c1-c1cccc(Cl)c1	> 100 µM	> 100 µM	> 100	> 100	> 100	> 100	> 100 µM	56.6 µM	> 100	> 100	49.7 µM	94.5 µM		> 100			
Cc1ccc(N=Nc2c3c(c(O)c4ccccc24)CCC(C)(C)O3)cc1	36.6 µM	73.3 µM	> 100	31.8	35.7	55.7	> 100 µM	36.7 µM	28.6	> 100	31.7 µM	> 100 µM	> 100 µM	34.8			
CC(C)(C)OC(=O)NCCCCC(NC(=O)OCc1ccccc1)C(N)=O (stereo not drawn)	> 100 µM	> 100 µM	> 100	> 100	> 100	> 100	> 100 µM	> 100 µM	> 100	> 100	> 100 µM	> 100 µM	> 100 µM	> 100			
Cc1c(S(=O)(=O)c2ccccc2)c(N)n(Cc2ccccc2)c1C		> 100 µM	> 100	> 100	> 100	> 100	> 100 µM	> 100 µM	> 100	> 100	> 100 µM	> 100 µM	> 100 µM	> 100			

Structure (SMILES)	TGI (HOP-62 NSCLC)	TGI (UO-31 renal)	TGI (OVCAR-8 ovarian) [µM]	TGI (A549 NSCLC) [µM]	TGI (HT29 colon) [µM]	TGI (KM12 colon) [µM]	TGI (CAKI-1 renal)	TGI (SK-MEL-2 melanoma)	TGI (NCI-H23 lung) [µM]	TGI (K-562 leukemia) [µM]	TGI (MDA-MB-435)	TGI (RPMI-8226 leukemia)	TGI (SK-OV-3 ovarian)	TGI (OVCAR-5 ovarian) [µM]	GI50 (SK-MEL-2 melanoma)	GI50 (MDA-MB-435)	GI50 (RPMI-8226 leukemia)
[N-]=[N+]=Nc1c(Cl)c(=O)n(-c2ccccc2)c2ccccc12	58.6 µM	52.6 µM		> 100	59.3	> 100	50.5 µM	53.2 µM	36.7	49	35 µM	> 100 µM	> 100 µM	42.4			
CCOP(=O)(OCC)[C@H](O)c1ccsc1	> 100 µM	> 100 µM	> 100	> 100	> 100	> 100	> 100 µM	> 100 µM	> 100	> 100	> 100 µM	> 100 µM	> 100 µM	> 100			
CC(C)(C)OC(=O)NC(C)(C)C(=O)NCCC(=O)O	> 100 µM	> 100 µM	> 100	> 100	> 100	> 100	> 100 µM	> 100 µM	> 100	> 100	> 100 µM	> 100 µM	> 100 µM	> 100			
O=C1CC(c2ccco2)C2(C(=O)NC(=O)NC2=O)C(c2ccco2)C1 (stereo not drawn)	> 75 µM	> 75 µM	> 75	> 75	> 75	> 75	> 75 µM	> 75 µM	> 75	> 75	> 75 µM	> 75 µM	> 75 µM	> 75			
COc1ccc(N2C(=O)C3c4[nH]c5ccc([N+](=O)[O-])cc5c4C4CCC(C(C)(C)C)CC4C3C2=O)cc1 (stereo not drawn)	78.8 µM	51.6 µM	> 100	> 100	20.1	> 100	> 100 µM	> 100 µM	60.4	7.33	> 100 µM	89.5 µM	> 100 µM	> 100			
Cc1ccccc1C1OC1C(=O)c1ccccc1N (stereo not drawn)		> 100 µM	> 100	> 100	> 100	> 100	> 100 µM	> 100 µM	> 100	> 100	43.2 µM	> 100 µM	> 100 µM	> 100			
CCOC(=O)c1sc2nc(SC)nc3c2c1N=CN3c1ccc(Br)cc1	> 100 µM	> 100 µM	> 100	> 100	> 100	> 100	> 100 µM	> 100 µM	> 100	> 100	> 100 µM	> 100 µM	> 100 µM	> 100			
O=C1CC(O)c2c1csc2Br (stereo not drawn)	> 100 µM	53.3 µM	62.4	> 100	> 100	43.3	> 100 µM	> 100 µM	59.1	76.7	41.1 µM	74.5 µM	> 100 µM	> 100			
c1cc(-c2cnc(-c3ccc4c(c3)CCCO4)o2)ccn1	30.1 µM	25.3 µM	27.6	51.5	41.3		41.5 µM	24.8 µM	30.2	22.8	28.3 µM	23.6 µM	57.3 µM	44.5			
O=c1[nH]c2nc3ccccc3c(=O)n2/c1=C/c1ccc(O)cc1	> 100 µM	> 100 µM	54.8	> 100	72	> 100	> 100 µM	> 100 µM	> 100		69.8 µM	53.2 µM	> 100 µM	> 100			
Cc1ccc2c(c1C)CC1(Cc3c(ccc4c3CCC4)C1=O)C2=O (stereo not drawn)		> 100 µM	> 100	> 100	> 100	> 100	> 100 µM	> 100 µM	> 100	> 100	> 100 µM	> 100 µM	> 100 µM	> 100			
CO[C@@H](C(=O)OC1C=CC2(CC1)C(=O)N(C)c1ccccc12)c1ccccc1 (stereo partly drawn)	> 100 µM	> 100 µM	> 100	> 100	> 100	> 100	> 100 µM	> 100 µM	> 100	> 100	> 100 µM	> 100 µM	> 100 µM	> 100			
CC(C)=CCN1CC(C)C(=O)Nc2cc(Cl)ccc21 (stereo not drawn)	81.4 µM	> 100 µM	79.4	> 100	38.3	59.8	55.5 µM	31.1 µM	85.5	> 100	52.1 µM	> 100 µM	84.4 µM	> 100			
COc1ccc2c(c1)c1c(n2CCN2CCOCC2)-c2ccccc2CC1	> 100 µM	> 100 µM	> 100	> 100	> 100	> 100	> 100 µM	82.5 µM	> 100	40.2	> 100 µM	64.2 µM	> 100 µM	> 100			
CCOc1ccc(N/C(=C(/C(Cl)=C(/Cl)NCCN)[N+](=O)[O-])n2nnc3ccccc32)cc1	> 100 µM	> 100 µM	30.4	> 100	> 100	> 100	34.8 µM	> 100 µM	> 100	> 100	> 100 µM	> 100 µM	> 100 µM	> 100			
C=CC(=O)c1ccc2c(c1)OCCOCCOCCOCCOCCO2	> 100 µM	> 58 µM	41.9	> 100	> 56.5	> 100	68 µM	> 79.7 µM	> 64.2	> 100	43.2 µM	> 100 µM	> 100 µM	> 100			
